Measured values taken from patent US7776848B2, “Spirocyclic cyclohexane compounds” (Gruenenthal GmbH, priority 2004, dated 2010).
Structures can show the parent of a compound that is named as a salt.

Experiments:
[1] = target: T1, 5HT uptake (serotonin reuptake), synaptosomes from hypothalamus of male rat brains (Rattus norvegicus, UniProt P31652); assay: Serotonin reuptake inhibition (5HT uptake inhibition) in rat brain synaptosomes; format: biochemical
T1 construct: synaptosomes are freshly isolated from areas of rat brain; from tissue; host or cells: synaptosomes (P2 fraction) from hypothalamus of male rat brains
Experimental: Biological Testing a) Studies of Serotonin Reuptake Inhibition (5HT Uptake Inhibition)
In order to be able to carry out these in vitro studies, synaptosomes are freshly isolated from areas of rat brain. A so-called “P2” fraction is used in each case, which is prepared according to the procedure of Gray and Whittaker (E. G. Gray and V. P. Whittaker (1962) J. Anat. 76, 79-88). For 5HT uptake, these vesicular particles are isolated from the hypothalamus of male rat brains. A detailed description of the method can be found in the literature (M. Ch. Frink, H.-H. Hennies, W. Englberger, M. Haurand and B. Wilffert (1996) Arzneim.-Forsch./Drug Res. 46 (III), 11, 1029-1036).

[2] = target: T2, NA uptake (noradrenaline reuptake), synaptosomes from hypothalamus of male rat brains (Rattus norvegicus, UniProt Q63380); assay: Noradrenaline reuptake inhibition (NA uptake inhibition) in rat brain synaptosomes; format: biochemical
T2 construct: synaptosomes are freshly isolated from areas of rat brain; from tissue; host or cells: synaptosomes (P2 fraction) from hypothalamus of male rat brains
Experimental: b) Studies of Noradrenaline Reuptake Inhibition (NA Uptake Inhibition)
In order to be able to carry out these in vitro studies, synaptosomes are freshly isolated from areas of rat brain. A so-called “P2” fraction is used in each case, which is prepared according to the procedure of Gray and Whittaker (E. G. Gray and V. P. Whittaker (1962) J. Anat. 76, 79-88). For NA uptake, these vesicular particles are isolated from the hypothalamus of male rat brains. A detailed description of the method can be found in the literature (M. Ch. Frink, H.-H. Hennies, W. Englberger, M. Haurand and B. Wilffert (1996) Arzneim.-Forsch./Drug Res. 46 (III), 11, 1029-1036).

T2 sequence (Q63380 1-617): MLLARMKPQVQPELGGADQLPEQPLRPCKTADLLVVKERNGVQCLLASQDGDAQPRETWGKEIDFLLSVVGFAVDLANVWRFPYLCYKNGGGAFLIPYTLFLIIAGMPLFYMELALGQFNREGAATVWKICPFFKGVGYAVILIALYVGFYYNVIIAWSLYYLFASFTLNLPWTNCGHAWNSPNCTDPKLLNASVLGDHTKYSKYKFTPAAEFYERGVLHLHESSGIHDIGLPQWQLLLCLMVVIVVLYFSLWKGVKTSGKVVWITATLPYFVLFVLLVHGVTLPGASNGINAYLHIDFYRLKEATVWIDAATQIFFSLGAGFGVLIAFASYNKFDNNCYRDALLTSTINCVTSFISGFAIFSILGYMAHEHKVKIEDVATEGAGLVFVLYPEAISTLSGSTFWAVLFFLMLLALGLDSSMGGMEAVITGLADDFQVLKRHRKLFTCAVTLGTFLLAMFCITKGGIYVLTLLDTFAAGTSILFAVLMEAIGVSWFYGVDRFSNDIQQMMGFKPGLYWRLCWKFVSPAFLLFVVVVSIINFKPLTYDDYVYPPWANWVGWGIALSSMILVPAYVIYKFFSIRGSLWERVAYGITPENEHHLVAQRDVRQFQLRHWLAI
T1 sequence (P31652 whole entry): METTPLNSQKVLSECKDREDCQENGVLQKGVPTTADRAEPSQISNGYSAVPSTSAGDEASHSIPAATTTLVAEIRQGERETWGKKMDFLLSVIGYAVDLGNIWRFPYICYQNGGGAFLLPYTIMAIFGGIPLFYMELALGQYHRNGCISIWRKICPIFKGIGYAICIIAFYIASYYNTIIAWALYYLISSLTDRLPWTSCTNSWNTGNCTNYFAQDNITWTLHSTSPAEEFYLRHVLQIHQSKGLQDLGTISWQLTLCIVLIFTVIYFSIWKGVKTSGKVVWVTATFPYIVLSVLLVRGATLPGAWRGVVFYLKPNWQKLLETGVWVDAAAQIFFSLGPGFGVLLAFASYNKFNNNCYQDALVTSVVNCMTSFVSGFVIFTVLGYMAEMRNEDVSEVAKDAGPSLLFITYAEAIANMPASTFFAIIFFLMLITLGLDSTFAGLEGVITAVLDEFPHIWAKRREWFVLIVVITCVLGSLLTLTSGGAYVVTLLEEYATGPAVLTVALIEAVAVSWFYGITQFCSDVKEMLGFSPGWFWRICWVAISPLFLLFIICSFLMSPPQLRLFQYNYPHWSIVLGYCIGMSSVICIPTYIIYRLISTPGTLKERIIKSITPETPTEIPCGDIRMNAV

Row | SMILES | inhibition at 10 µM [1] [%] | inhibition at 10 µM [2] [%]
1 | Cc1ccccc1C1(O)CCC2(CC1CN(C)C)NCCc1c2[nH]c2cc(F)ccc12 (centres unmarked) [Example 32, 1,1-(2-(Dimethylaminomethyl)-3-hydroxy-3-(2-methylphenyl)-pentamethylene)-7-fluoro-3,4-dihydro-1H-2,9-diazafluorene citrate] | 75 | 38
2 | CN(C)CC1CC2(CCC1(O)c1cccc(F)c1)NCCc1c2[nH]c2ccccc12 (centres unmarked) [Example 3, 1,1-(2-(Dimethylaminomethyl)-3-hydroxy-3-(3-fluorophenyl)-pentamethylene)-3,4-dihydro-1H-2,9-diazafluorene citrate] | 75 | 48
3 | Cc1ccccc1C1(O)CCC2(CC1CN(C)C)NCCc1c2[nH]c2ccccc12 (centres unmarked) [Example 6, 1,1-(2-(Dimethylaminomethyl)-3-hydroxy-3-(2-methylphenyl)-pentamethylene)-3,4-dihydro-1H-2,9-diazafluorene citrate] | 69 | 
4 | CSc1ccc(C2(O)CCC3(CC2CN(C)C)SCCc2c3[nH]c3ccccc23)cc1 (centres unmarked) [Example 23, 1,1-(2-(Dimethylaminomethyl)-3-hydroxy-3-(4-methylthiophenyl)-pentamethylene)-1,3,4,9-tetrahydro-2-thia-9-aza-fluorene sesquicitrate] | 50 | 
5 | COc1ccc2[nH]c3c(c2c1)CCOC31CCC(O)(c2ccc(SC)cc2)C(CN(C)C)C1 (centres unmarked) [Example 18, 1,1-(2-(Dimethylaminomethyl)-3-hydroxy-3-(4-methylthiophenyl)-pentamethylene)-1,3,4,9-tetrahydro-6-methoxy-pyrano[3,4-b]indole citrate] |  | 41
6 | CN(C)CC1CC2(CCC1(O)c1cccc(F)c1)OCCc1c2sc2ccccc12 (centres unmarked) [Example 10, 1,1-(2-(Dimethylaminomethyl)-3-hydroxy-3-(3-fluorophenyl)-pentamethylene)-1,3,4,9-tetrahydro-pyrano[3,4-b]benzothiophene citrate] | 88 | 55
7 | CN(C)CC1CC2(CCC1(O)c1ccc(C(F)(F)F)cc1)NCCc1c2[nH]c2ccccc12 (centres unmarked) [Example 15, 1,1-(2-(Dimethylaminomethyl)-3-hydroxy-3-(4-trifluoromethylphenyl)-pentamethylene)-3,4-dihydro-1H-2,9-diazafluorene dicitrate] | 83 | 76
8 | CSc1ccc(C2(O)CCC3(CC2CN(C)C)OCCc2c3oc3ccccc23)cc1 (centres unmarked) [Example 30, 1,1-(2-(dimethylaminomethyl)-3-hydroxy-3-(4-methylthiophenyl)-pentamethylene)-1,3,4,9-tetrahydro-pyrano[3,4-b]benzofuran citrate] | 83 | 37
9 | CN(C)CC1CC2(CCC1(O)c1ccc(C(F)(F)F)cc1)NCCc1c2[nH]c2cc(F)ccc12 (centres unmarked) [Example 33, 1,1-(2-(Dimethylaminomethyl)-3-hydroxy-3-(4-trifluoromethylphenyl)-pentamethylene)-7-fluoro-3,4-dihydro-1H-2,9-diazafluorene citrate] | 78 | 68
10 | COc1ccc2[nH]c3c(c2c1)CCNC31CCC(O)(c2ccccc2)C(CN(C)C)C1 (centres unmarked) [Example 17, 1,1-(2-(Dimethylaminomethyl)-3-hydroxy-3-phenyl-pentamethylene)-3,4-dihydro-6-methoxy-1H-2,9-diazafluorene citrate] | 57 | 
11 | CSc1ccc(C2(O)CCC3(CC2CN(C)C)OCCc2c3sc3ccccc23)cc1 (centres unmarked) [Example 31, 1,1-(2-(dimethylaminomethyl)-3-hydroxy-3-(4-methylthiophenyl)-pentamethylene)-1,3,4,9-tetrahydro-pyrano[3,4-b]benzothiophene citrate] | 82 | 60
12 | CN(C)CC1CC2(CCC1(O)c1ccccc1)OCCc1c2sc2ccccc12 (centres unmarked) [Example 7, 1,1-(2-(Dimethylaminomethyl)-3-hydroxy-3-phenyl-pentamethylene)-1,3,4,9-tetrahydro-pyrano[3,4-b]benzothiophene citrate] | 88 | 59
13 | CSc1ccc(C2(O)CCC3(CC2CN(C)C)OCCc2c3[nH]c3ccccc23)cc1 (centres unmarked) [Example 20, 1,1-(2-(Dimethylaminomethyl)-3-hydroxy-3-(4-methylthiophenyl)-pentamethylene)-1,3,4,9-tetrahydro-pyrano[3,4-b]indole citrate] | 58 | 
14 | CN(C)CC1CC2(CCC1(O)c1cccc(F)c1)SCCc1c2[nH]c2ccccc12 (centres unmarked) [Example 14, 1,1-(2-(Dimethylaminomethyl)-3-hydroxy-3-(3-fluorophenyl)-pentamethylene)-1,3,4,9-tetrahydro-2-thia-9-aza-fluorene citrate] | 61 | 46
15 | Cc1ccccc1C1(O)CCC2(CC1CN(C)C)OCCc1c2sc2ccccc12 (centres unmarked) [Example 11, 1,1-(2-(Dimethylaminomethyl)-3-hydroxy-3-(2-methylphenyl)-pentamethylene)-1,3,4,9-tetrahydro-pyrano[3,4-b]benzothiophene citrate] | 85 | 43
16 | CSc1ccc(C2(O)CCC3(CC2CN(C)C)NCCc2c3[nH]c3ccccc23)cc1 (centres unmarked) [Example 26, 1,1-(2-(Dimethylaminomethyl)-3-hydroxy-3-(4-methylthiophenyl)-pentamethylene)-3,4-dihydro-1H-2,9-diazafluorene citrate] |  | 40
17 | CN(C)CC1CC2(CCC1(O)c1ccccc1)NCCc1c2[nH]c2cc(F)ccc12 (centres unmarked) [Example 35, 1,1-(2-(Dimethylaminomethyl)-3-hydroxy-3-phenyl-pentamethylene)-7-fluoro-3,4-dihydro-1H-2,9-diazafluorene dicitrate] | 67 | 
18 | COc1ccc2[nH]c3c(c2c1)CCNC31CCC(O)(c2cccc(F)c2)C(CN(C)C)C1 (centres unmarked) [Example 21, 1,1-(2-(Dimethylaminomethyl)-3-hydroxy-3-(3-fluorophenyl)-pentamethylene)-3,4-dihydro-6-methoxy-1H-2,9-diazafluorene citrate] | 57 | 44
19 | CN(C)CC1CC2(CCC1(O)c1ccccc1)SCCc1c2[nH]c2ccccc12 (centres unmarked) [Example 9, 1,1-(2-(Dimethylaminomethyl)-3-hydroxy-3-phenyl-pentamethylene)-1,3,4,9-tetrahydro-2-thia-9-aza-fluorene citrate] | 81 | 
20 | CN(C)CC1CC2(CCC1(O)c1ccc(C(F)(F)F)cc1)OCCc1c2sc2ccccc12 (centres unmarked) [Example 29, 1,1-(2-(Dimethylaminomethyl)-3-hydroxy-3-(4-trifluoromethylphenyl)-pentamethylene)-1,3,4,9-tetrahydro-pyrano[3,4-b]benzothiophene citrate] | 47 | 35
21 | COc1ccc2[nH]c3c(c2c1)CCNC31CCC(O)(c2ccc(C(F)(F)F)cc2)C(CN(C)C)C1 (centres unmarked) [Example 22, 1,1-(2-(Dimethylaminomethyl)-3-hydroxy-3-(4-trifluoromethylphenyl)-pentamethylene)-3,4-dihydro-6-methoxy-1H-2,9-diazafluorene citrate] | 47 | 
22 | Cc1ccccc1C1(O)CCC2(CC1CN(C)C)SCCc1c2[nH]c2ccccc12 (centres unmarked) [Example 24, 1,1-(2-(Dimethylaminomethyl)-3-hydroxy-3-(2-methylphenyl)-pentamethylene)-1,3,4,9-tetrahydro-2-thia-9-aza-fluorene citrate] | 75 | 42
23 | CN(C)CC1CC2(CCC1(O)c1cccc(F)c1)NCCc1c2[nH]c2cc(F)ccc12 (centres unmarked) [Example 16, 1,1-(2-(Dimethylaminomethyl)-3-hydroxy-3-(3-fluorophenyl)-pentamethylene)-7-fluoro-3,4-dihydro-1H-2,9-diazafluorene sesquicitrate] | 72 | 
24 | CN(C)CC1CC2(CCC1(O)c1ccc(C(F)(F)F)cc1)OCCc1c2oc2ccccc12 (centres unmarked) [Example 13, 1,1-(2-(Dimethylaminomethyl)-3-hydroxy-3-(4-trifluoromethylphenyl)-pentamethylene)-1,3,4,9-tetrahydro-pyrano[3,4-b]benzofuran citrate] | 60 | 46
